Laboratory results published in a melting point compilation (Tetko et al.; mined from patent text by program, amines drawn as free bases though some values may be those of a salt).

For `Cc1cc(C)nc(S(=O)(=O)Nc2c(Cl)ccc(C)c2Cl)n1`, which melting point is on record?
The melting point was 234 to 235 °C.

With `COC(=O)c1ccc(OCC(C)NCC(O)c2cccc(Cl)c2)c(C(=O)OC)c1` (configuration not stated) as the molecule, how does the melting point read?
The melting point was 112 °C.

For `CN1C2CCCC1CC(NC(=O)c1cccc3oc(-c4ccc(Cl)cc4)nc13)C2` (configuration not stated), which melting point is on record?
The melting point was 185 to 187 °C.

For `CC=COC(=O)C1(S(=O)(=O)C(C)(C)C)C=CC=CC1C[C@H](N)C(=O)O` (some centres not stated), which melting point is on record?
The melting point was 88 to 89.5 °C.

For `COc1cc(Nc2c(C#N)cnc3cc(-c4ccc(CCl)cc4)ccc23)c(Cl)cc1Cl`, which melting point is on record?
Its melting point is 236 to 239 °C.

With `CC(=O)c1ccc(-n2c(-c3sc(NC(=O)c4ccc(C)cc4)nc3-c3ccccc3)nc3ccccc3c2=O)cc1` as the molecule, how does the melting point read?
Its melting point is 266 to 267 °C.

For `O=C(CCCCC(=O)NCC1Cc2c1ccc(OCc1ccccc1)c2OCc1ccccc1)NCCc1ccccc1` (configuration not stated), which melting point is on record?
The melting point was 152 to 155 °C.

For `COc1cc2c(cc1Nc1ncc(Cl)c(N[C@@H]3CCCC[C@H]3NS(C)(=O)=O)n1)CCN(C(=O)C(F)(F)F)CC2`, which melting point is on record?
Its melting point is 98 to 107 °C.

With `CCCCCN(Cc1ccc(-c2ccccc2S(=O)(=O)NC(C)(C)C)cc1)C(=O)Cl` as the molecule, how does the melting point read?
The melting point was 125 to 126 °C.

For `Cc1cc(C)c(N2CCCc3c2nn(C)c3C(=O)O)c(Cl)c1`, which melting point is on record?
The melting point was 248 °C.

With `O=C1C=C(NC(=O)C(=O)c2cn(Cc3ccc(F)cc3)c3cc4c(cc23)OCO4)CO1` as the molecule, how does the melting point read?
The melting point was 210 to 212 °C.

With `Cc1cc(NS(=O)(=O)c2ccccc2)no1` as the molecule, how does the melting point read?
The melting point was 107 to 108 °C.

With `CCOC(=O)C=Cc1cc([N+](=O)[O-])ccc1OCCCc1ccccc1` as the molecule, how does the melting point read?
Its melting point is 117 to 118 °C.

For `C#CC(C)(C)Oc1ccc(-c2ccnc(C)c2)cc1`, which melting point is on record?
The melting point was 37 to 40 °C.

Which melting point does the source give for `c1ccc(CCn2cnc3cnc4ccccc4c32)cc1` here?
The melting point was 105 to 108 °C.

With `O=Cc1cccc2cc3ccccc3cc12` as the molecule, how does the melting point read?
Its melting point is 126 to 128 °C.

Which melting point does the source give for `CCc1nc2c(cnn2CC)c(NC2CCOCC2)c1CNC(=O)c1cc(C)cc(C(=O)NCc2cccc(-c3cccc(CC4CCNCC4)c3)c2)c1` here?
Its melting point is 130 to 132 °C.

For `Nc1ccccc1NC(=O)c1ccc(CCC(=O)NCc2cccnc2)cc1`, which melting point is on record?
Its melting point is 168 to 170 °C.

With `Oc1nc2c(Cl)nc3ccccc3c2n1CC1CCOCC1` as the molecule, how does the melting point read?
The melting point was > 275 °C.

With `CN(C)c1nc(N2CCOCC2)nc(-n2ccnc2)n1` as the molecule, how does the melting point read?
Its melting point is 156 to 158 °C.

Which melting point does the source give for `CN1CCC(c2cc(F)ccc2F)(S(=O)(=O)c2ccc(Cl)cc2)CC1` here?
The melting point was 172 to 175 °C.

Which melting point does the source give for `O=C(O)CC[C@H](NC(=O)Oc1ccc(N(CCCl)CCCl)cc1)C(=O)O` here?
Its melting point is 87 to 89 °C.

Which melting point does the source give for `CCOC(=O)c1c(Cn2cncn2)nc2cc(OC)c(OC)cc2c1-c1ccc(O)c(O)c1` here?
The melting point was 122 to 124 °C.

With `Cc1nn(C)c(F)c1C(=O)F` as the molecule, how does the melting point read?
The melting point was 85 to 87 °C.

For `CCOc1cccc2c(=O)c3ccccc3sc12`, which melting point is on record?
The melting point was 112 to 115 °C.

Which melting point does the source give for `COc1cc(OC)nc(NC(=O)NS(=O)(=O)c2cccnc2-n2cncn2)n1` here?
Its melting point is 226 to 230 °C.

Which melting point does the source give for `CS(=O)(=O)Nc1cccc(S(=O)(=O)N2CCOc3c(N4CCNCC4)cccc32)c1` here?
Its melting point is 158 to 164 °C.

With `Cc1nn(-c2cc(Oc3ccc([N+](=O)[O-])cc3Cl)c(Cl)cc2Cl)c(=O)n1C(F)F` as the molecule, how does the melting point read?
Its melting point is 135 to 136 °C.

With `Oc1ccccc1-c1cc(-c2ccc(F)c(F)c2)cc(-c2ccc3ccccc3c2)n1` as the molecule, how does the melting point read?
The melting point was 165 to 167 °C.

Which melting point does the source give for `O=C1NCCn2c1c(-c1ccccc1)c1ccccc1c2=O` here?
The melting point was > 300 °C.

Which melting point does the source give for `CCCCNC(=O)CC(=O)Nc1ccc(Br)cc1C` here?
Its melting point is 123 to 125 °C.

With `COc1cc2c(cc1O)/C(=N/OCc1ccc([N+](=O)[O-])cc1)CC2` as the molecule, how does the melting point read?
Its melting point is 146 to 149 °C.

For `Cc1nc(C)c(Cl)c(NCc2ccc(OCCn3c([N+](=O)[O-])cnc3C)c(Cl)n2)n1`, which melting point is on record?
The melting point was 206 to 208 °C.

Which melting point does the source give for `CC1(C)Oc2ccc([N+](=O)[O-])cc2C(n2ccccc2=O)C1(C)O` (configuration not stated) here?
Its melting point is 214 °C.

For `COc1ccc(OS(=O)(=O)c2ccc(C)cc2)c(C(C)C)c1`, which melting point is on record?
Its melting point is 85.1 °C.

For `CC(=O)Nc1ccc(C=O)c(C)c1C#N`, which melting point is on record?
The melting point was 170 to 173 °C.

Which melting point does the source give for `O=C(Nc1n[nH]c(=S)s1)N[C@@H](Cc1ccc(F)cc1)C(=O)N1CCN(c2ccccn2)CC1` here?
The melting point was 240 to 242 °C.
